Literature values, collected in US20260069593A1, “METHODS FOR TREATING CANCER” (AMGEN INC., priority 2022, published 2026).

Tested on: extracellular signal-regulated kinase (ERK)
Conditions: preclinical studies

C=CC(=O)N1CCN(c2nc(=O)n(-c3c(C)ccnc3C(C)C)c3nc(-c4c(O)cccc4F)c(F)cc23)[C@@H](C)C1 (atropisomer, axis not shown; (M)) [sotorasib, 6-fluoro-7-(2-fluoro-6-hydroxyphenyl)-(1M)-1-[4-methyl-2-(propan-2-yl)pyridin-3-yl]-4-[(2S)-2-methyl-4-(prop-2-enoyl)piperazin-1-yl]pyrido[2,3-d]pyrimidin-2(1H)-one]
phosphorylation of extracellular signal-regulated kinase (ERK): inhibited nearly all detectable phosphorylation of extracellular signal-regulated kinase (ERK)
